From patent publication US9296776B2, “Substituted nucleoside derivatives with antiviral and antimicrobial properties” (Eastern Virginia Medical School, priority 2007, dated 2016)
In brackets after ≈: the same amount, converted by molar mass. Like-named read-outs stand apart in the source and are kept apart here.

What was measured:
Format in all cases: cell-based
[1] = tested on: HIV-1 BaL (cell-free virus); experiment: Single-round infection assay, cell-free virus BaL; conditions: for IC50: Human immunodeficiency virus 1, BAL, read-out: IC50 Cell-Free Virus BaL; for EC50 Cell-Free Virus BaL: Table 6
[2] = tested on: Cell-associated HIV-1, SupT1 (IIIB); experiment: Single-round infection assay, cell-associated virus SupT1 (IIIB); conditions: for IC50: Human immunodeficiency virus 1, IIIB
[3] = tested on: HIV-1 IIIB (cell-free virus); experiment: microbe, parasite or virus in culture; conditions: for IC50: Human immunodeficiency virus 1, IIIB, read-out: IC50 Cell-Free Virus IIIB; for EC50 Cell-free HIV-1 (IIIB) / EC50: Table 8; for EC50: read-out: EC50 Cell-free HIV-1 (IIIB); for EC50 Cell-Free Virus IIIB: Table 6
[4] = Table 1, 2 h incubation, wash, 48 h culture
[5] = SUP-T1, Table 1, 2 h incubation, wash, 48 h culture, read-out: IC50 Cell-Associated Virus SupT1 (IIIB)
[6] = 2 h incubation, wash, 48 h culture

Molecule: Cc1cn([C@H]2C=C[C@@H](CO)O2)c(=O)[nH]c1=O [2′,3′-didehydro-2′,3′-dideoxythymidine, reference compound]
- IC50 [1]: 6.3 µg/mL (≈ 28.1 µM)
- IC50 ([2]; SUP-T1, read-out: IC50 Cell-Associated Virus SupT1 (IIIB)): 30.5 µg/mL (≈ 136 µM)
- IC50 [3]: 6 µg/mL (≈ 26.8 µM)

Molecule: Nc1nc(=O)n([C@H]2CS[C@@H](CO)O2)cc1F [2′,3′-dideoxy-5-fluoro-3′-thiacytidine, reference compound]
- IC50 [1, 4]: 0.18 µg/mL (≈ 0.728 µM)
- IC50 [2, 5]: 21.9 µg/mL (≈ 88.6 µM)
- IC50 [3, 4]: 0.48 µg/mL (≈ 1.94 µM)

Molecule: CCSCCCCCCCCCCC(=O)OC[C@H]1O[C@@H](n2cc(C)c(=O)[nH]c2=O)C[C@@H]1N=[N+]=[N-] [3′-azido-2′,3′-dideoxy-5′-O-(11-thioethylundecanoyl)thymidine]
- IC50 Cell-Free Virus BaL [1, 4]: 2.6 µg/mL (≈ 5.25 µM)
- IC50 Cell-Associated Virus SupT1 (IIIB) [2, 4]: 44.9 µg/mL (≈ 90.6 µM)
- IC50 Cell-Free Virus IIIB [3, 4]: 3.8 µg/mL (≈ 7.67 µM)

Molecule: Cc1cn([C@H]2C[C@H](N=[N+]=[N-])[C@@H](COC(=O)CCCCCCCCCCCBr)O2)c(=O)[nH]c1=O [3′-azido-2′,3′-dideoxy-5′-O-(12-bromododecanoyl)thymidine]
- IC50 Cell-Free Virus BaL [1, 4]: 2.6 µg/mL (≈ 4.92 µM)
- IC50 Cell-Associated Virus SupT1 (IIIB) [2, 4]: >100 µg/mL
- IC50 Cell-Free Virus IIIB [3, 4]: 5.6 µg/mL (≈ 10.6 µM)

Molecule: CCCCCCCCCCCCCCC(=O)OC[C@H]1O[C@@H](n2cc(C)c(=O)[nH]c2=O)C[C@@H]1N=[N+]=[N-] [3′-azido-2′,3′-dideoxy-5′-O-(pentadecanoyl)thymidine]
- IC50 Cell-Free Virus BaL [1, 4]: 2.2 µg/mL (≈ 4.47 µM)
- IC50 Cell-Associated Virus SupT1 (IIIB) [2, 4]: >100 µg/mL
- IC50 Cell-Free Virus IIIB [3, 4]: 8.8 µg/mL (≈ 17.9 µM)

Molecule: CCCCCCCCCCCCCC(=O)OC[C@H]1O[C@@H](n2cc(C)c(=O)[nH]c2=O)C[C@@H]1N=[N+]=[N-] [3′-azido-2′,3′-dideoxy-5′-O-(tetradecanoyl)thymidine]
- IC50 Cell-Free Virus BaL [1, 4]: 2.4 µg/mL (≈ 5.03 µM)
- IC50 Cell-Associated Virus SupT1 (IIIB) [2, 4]: >100 µg/mL
- IC50 Cell-Free Virus IIIB [3, 4]: 1.5 µg/mL (≈ 3.14 µM)

Molecule: CCCCCCCCCCCCCCOC[C@H]1O[C@@H](n2cc(C)c(=O)[nH]c2=O)C[C@@H]1N=[N+]=[N-] [3′-azido-2′,3′-dideoxy-5′-O-(tetradecyl)thymidine]
- IC50 Cell-Free Virus BaL [1, 4]: 12.8 µg/mL (≈ 27.6 µM)
- IC50 Cell-Associated Virus SupT1 (IIIB) [2, 4]: >100 µg/mL
- IC50 Cell-Free Virus IIIB [3, 4]: 57.8 µg/mL (≈ 125 µM)

Molecule: Cc1cn([C@H]2C[C@H](F)[C@@H](CO)O2)c(=O)[nH]c1=O [3′-fluoro-2′,3′-deoxythymidine (FLT), 3′-fluoro-2′,3′-deoxythymidine, reference compound]
- IC50 Cell-Free Virus BaL [1, 4]: 0.1 µg/mL (≈ 0.409 µM)
- IC50 Cell-Associated Virus SupT1 (IIIB) [2, 4]: >100 µg/mL
- IC50 Cell-Free Virus IIIB [3, 4]: 0.2 µg/mL (≈ 0.819 µM)
- EC50 Cell-free HIV-1 (IIIB) [3, 6]: 0.2 µg/mL (≈ 0.819 µM)
- EC50 [3, 6]: 0.8 µM

Molecule: CCCCCCCCCCCCC(OC)C(=O)OC[C@H]1O[C@@H](n2cc(C)c(=O)[nH]c2=O)C[C@@H]1F (stereo partly shown) [3′-fluoro-2′,3′-dideoxy-5′-O-(2-methoxytetradecanoyl)thymidine]
- IC50 Cell-Free Virus BaL [1, 4]: 0.1 µg/mL (≈ 0.206 µM)
- IC50 Cell-Associated Virus SupT1 (IIIB) [2, 4]: >100 µg/mL
- IC50 Cell-Free Virus IIIB [3, 4]: 0.5 µg/mL (≈ 1.03 µM)

Molecule: CCCCCSCCCCCCCC(=O)OC[C@H]1O[C@@H](n2cc(C)c(=O)[nH]c2=O)C[C@@H]1F [3′-fluoro-2′,3′-dideoxy-5′-O-(9-thiatertradecanoyl)thymidine]
- IC50 Cell-Free Virus BaL [1, 4]: 2.1 µg/mL (≈ 4.44 µM)
- IC50 Cell-Associated Virus SupT1 (IIIB) [2, 4]: >100 µg/mL
- IC50 Cell-Free Virus IIIB [3, 4]: 5.4 µg/mL (≈ 11.4 µM)

Molecule: Cc1cn([C@H]2C[C@H](F)[C@@H](COC(=O)CCCCCCCCCCCN)O2)c(=O)[nH]c1=O [3′-fluoro-2′,3′-dideoxy-5′-O-(12-aminododecanoyl)thymidine]
- IC50 Cell-Free Virus IIIB [3, 4]: 0.67 µg/mL (≈ 1.52 µM)

Molecule: Cc1cn([C@H]2C[C@H](F)[C@@H](COC(=O)CCCCCCCCCCCBr)O2)c(=O)[nH]c1=O [3′-fluoro-2′,3′-dideoxy-5′-O-(12-bromododecanoyl)thymidine]
- IC50 Cell-Free Virus BaL [1, 4]: <0.1 µg/mL
- IC50 Cell-Associated Virus SupT1 (IIIB) [2, 4]: >100 µg/mL
- IC50 Cell-Free Virus IIIB [3, 4]: 0.9 µg/mL (≈ 1.78 µM)

Molecule: CCCCCCCCCCCCCCOC[C@H]1O[C@@H](n2cc(C)c(=O)[nH]c2=O)C[C@@H]1F [3′-fluoro-2′,3′-dideoxy-5′-O-(tetradecyl)thymidine]
- IC50 Cell-Free Virus BaL [1, 4]: 77.3 µg/mL (≈ 175 µM)
- IC50 Cell-Associated Virus SupT1 (IIIB) [2, 4]: >100 µg/mL
- IC50 Cell-Free Virus IIIB [3, 4]: 79.1 µg/mL (≈ 180 µM)

Molecule: Cc1cn([C@H]2C=C[C@@H](COC(=O)CCCCCCCCCCCN=[N+]=[N-])O2)c(=O)[nH]c1=O [5′-O-(12-azidodecanoyl)-2′,3′-didehydro-2′,3′-dideoxythymidine]
- IC50 Cell-Free Virus BaL [1, 4]: 1.4 µg/mL (≈ 3.13 µM)
- IC50 Cell-Associated Virus SupT1 (IIIB) [2, 4]: 10.0 µg/mL (≈ 22.3 µM)
- IC50 Cell-Free Virus IIIB [3, 4]: 3.0 µg/mL (≈ 6.7 µM)

Molecule: [N-]=[N+]=NCCCCCCCCCCCC(=O)OC[C@H]1O[C@@H](n2ccc(N)nc2=O)CS1 [5′-O-(12-azidododecanoyl)-2′,3′-dideoxy-3′-thiacytidine]
- IC50 [1, 4]: 0.08 µg/mL (≈ 0.177 µM)
- IC50 [2, 5]: > 100 µg/mL
- IC50 [3, 4]: 0.88 µg/mL (≈ 1.94 µM)

Molecule: [N-]=[N+]=NCCCCCCCCCCCC(=O)OC[C@H]1O[C@@H](n2cc(F)c(N)nc2=O)CS1 [5′-O-(12-azidododecanoyl)-2′,3′-dideoxy-5-fluoro-3′-thiacytidine]
- IC50 [1, 4]: 0.11 µg/mL (≈ 0.234 µM)
- IC50 [2, 5]: 4.3 µg/mL (≈ 9.14 µM)
- IC50 [3, 4]: 0.39 µg/mL (≈ 0.829 µM)

Molecule: Cc1cn(C2C=CC(COC(=O)CCCCCCCCCCCSCCN=[N+]=[N-])O2)c(=O)[nH]c1=O (stereo not shown) [5′-O-(12-thioethylazidodecanoyl)-2′,3′-didehydro-2′,3′-dideoxythymidine]
- IC50 Cell-Free Virus BaL [1, 4]: 2.7 µg/mL (≈ 5.32 µM)
- IC50 Cell-Associated Virus SupT1 (IIIB) [2, 4]: 21.7 µg/mL (≈ 42.7 µM)
- IC50 Cell-Free Virus IIIB [3, 4]: 6.7 µg/mL (≈ 13.2 µM)

Molecule: CCSCCCCCCCCCCCC(=O)OC[C@H]1O[C@@H](n2ccc(N)nc2=O)CS1 [5′-O-(13-thiapentadecanoyl)-2′,3′-dideoxy-3′-thiacytidine]
- IC50 [1, 4]: < 0.1 µg/mL
- IC50 [2, 5]: > 100 µg/mL
- IC50 [3, 4]: 1.1 µg/mL (≈ 2.33 µM)

Molecule: CC(=O)NC(CCC(=O)OC[C@H]1O[C@@H](n2cc(C)c(=O)[nH]c2=O)C[C@@H]1F)C(=O)OC[C@@H]1O[C@H](n2ccc(N)nc2=O)CS1 (stereo partly shown) [KPH-96, FLT(Glutamyl)-3TC]
- EC50 Cell-free HIV-1 (IIIB) [3, 6]: 10.7 µg/mL (≈ 17.1 µM)
- EC50 [3, 6]: 17.1 µM

Molecule: CCCCCCCCCCCCCC(=O)NC(CCC(=O)OC[C@H]1O[C@@H](n2cc(C)c(=O)[nH]c2=O)C[C@@H]1F)C(=O)OC[C@@H]1O[C@H](n2ccc(N)nc2=O)CS1 (stereo partly shown) [KPH-97]
- EC50 Cell-free HIV-1 (IIIB) [3, 6]: 1.6 µg/mL (≈ 2.01 µM)
- EC50 [3, 6]: 2 µM

Molecule: CC(=O)NC(CCC(=O)OC[C@H]1O[C@@H](n2cc(C)c(=O)[nH]c2=O)C[C@@H]1F)C(=O)OC[C@H]1O[C@@H](n2cc(C)c(=O)[nH]c2=O)C[C@@H]1N=[N+]=[N-] (stereo partly shown) [KPH-98, FLT(Glutamyl)-AZT]
- EC50 Cell-free HIV-1 (IIIB) [3, 6]: 9.0 µg/mL (≈ 13.5 µM)
- EC50 [3, 6]: 13.5 µM

Molecule: CCCCCCCCCCCCCC(=O)NC(CCC(=O)OC[C@H]1O[C@@H](n2cc(C)c(=O)[nH]c2=O)C[C@@H]1F)C(=O)OC[C@H]1O[C@@H](n2cc(C)c(=O)[nH]c2=O)C[C@@H]1N=[N+]=[N-] (stereo partly shown) [KPH-99]
- EC50 Cell-free HIV-1 (IIIB) [3, 6]: 2.0 µg/mL (≈ 2.4 µM)
- EC50 [3, 6]: 2.4 µM

Molecule: CCCCCCCCCCCCCC(=O)NC(CCC(=O)OC[C@H]1O[C@@H](n2cc(C)c(=O)[nH]c2=O)C[C@@H]1N=[N+]=[N-])C(=O)OC[C@@H]1O[C@H](n2ccc(N)nc2=O)CS1 (stereo partly shown) [KPH-910]
- EC50 Cell-free HIV-1 (IIIB) [3, 6]: 4.9 µg/mL (≈ 5.99 µM)
- EC50 [3, 6]: 6 µM

Molecule: CC(=O)NC(CCC(=O)OC[C@H]1O[C@@H](n2cc(C)c(=O)[nH]c2=O)C[C@@H]1N=[N+]=[N-])C(=O)OC[C@@H]1O[C@H](n2ccc(N)nc2=O)CS1 (stereo partly shown) [KPH-911, AZT(Glutamyl)-3TC]
- EC50 Cell-free HIV-1 (IIIB) [3, 6]: 7.8 µg/mL (≈ 12 µM)
- EC50 [3, 6]: 12 µM

Molecule: Cc1cn([C@H]2C[C@H](F)[C@@H](COC(=O)CCC(=O)OC[C@H]3O[C@@H](n4cc(C)c(=O)[nH]c4=O)C[C@@H]3F)O2)c(=O)[nH]c1=O [KPH-912, FLT-succinate-FLT]
- EC50 Cell-free HIV-1 (IIIB) [3, 6]: 2.1 µg/mL (≈ 3.68 µM)
- EC50 [3, 6]: 3.7 µM

Molecule: Cc1cn([C@H]2C[C@H](N=[N+]=[N-])[C@@H](COC(=O)CCC(=O)OC[C@H]3O[C@@H](n4cc(C)c(=O)[nH]c4=O)C[C@@H]3N=[N+]=[N-])O2)c(=O)[nH]c1=O [KPH-913, AZT-succinate-AZT]
- EC50 Cell-free HIV-1 (IIIB) [3, 6]: 8.6 µg/mL (≈ 13.9 µM)
- EC50 [3, 6]: 13.9 µM

Molecule: Cc1cn([C@H]2C[C@H](N=[N+]=[N-])[C@@H](COC(=O)CCC(NC(=O)CCC(=O)OC[C@H]3O[C@@H](n4cc(C)c(=O)[nH]c4=O)C[C@@H]3F)C(=O)OC[C@@H]3O[C@H](n4ccc(N)nc4=O)CS3)O2)c(=O)[nH]c1=O (stereo partly shown) [KPH-914, FLT-Succinate-AZT(glutamyl)-3TC]
- EC50 Cell-free HIV-1 (IIIB) [3, 6]: 0.9 µg/mL (≈ 0.964 µM)
- EC50 [3, 6]: 0.96 µM

Molecule: Suramin-3′-azido-2′,3′-dideoxythymidine [Suramin-AZT]
- EC50 Cell-Free Virus BaL [1]: 7.3 µg/mL
- EC50 Cell-Free Virus IIIB [3]: 19.4 µg/mL

Molecule: Suramin-3′-fluoro-2′,3′-dideoxythymidine [Suramin-FLT]
- EC50 Cell-Free Virus BaL [1]: 6.2 µg/mL
- EC50 Cell-Free Virus IIIB [3]: 23.6 µg/mL
